# Assay results: the supplement of paper PMC10307832
# Experiments:
# Experiment in all cases: relative viability (nuclei count vs DMSO), 5 days (fraction); higher = more cells survive
# 201T = system: 201T
# Method in brief: (§1)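 Nuclei were stained with Hoechst during a one-step fixation (final 0.05% Triton X-100, 1% formaldehyde, 1 ug/ml Hoechst) carried out 5 days after dosing, then counted on 4× images. The cells, lung cancer lines in 1536-well plates, had been dosed by pin tool the day after seeding with one drug alone or a fixed anchor-drug dose plus five library-drug doses (not always all listed) in √10 steps. Relative viability is the nuclei count in treated wells divided by that in vehicle wells, and each value is the median of duplicate plates.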
# COR-L23 = system: COR-L23
# Method in brief: as §1
# H3255 = system: H3255
# Method in brief: as §1
# HARA = system: HARA
# Method in brief: as §1
# HCC-366 = system: HCC-366
# Method in brief: as §1
# HCC-78 = system: HCC-78
# Method in brief: as §1
# LU99A = system: LU99A
# Method in brief: as §1
# NCI-H1650 = system: NCI-H1650
# Method in brief: as §1
# NCI-H1651 = system: NCI-H1651
# Method in brief: as §1
# NCI-H1755 = system: NCI-H1755
# Method in brief: as §1
# NCI-H1793 = system: NCI-H1793
# Method in brief: as §1
# NCI-H2085 = system: NCI-H2085
# Method in brief: as §1
# NCI-H2087 = system: NCI-H2087
# Method in brief: as §1
# NCI-H23 = system: NCI-H23
# Method in brief: as §1
# NCI-H3122 = system: NCI-H3122
# Method in brief: as §1
# NCI-H322M = system: NCI-H322M
# Method in brief: as §1
# NCI-H358 = system: NCI-H358
# Method in brief: as §1
# NCI-H460 = system: NCI-H460
# Method in brief: as §1
# NCI-H522 = system: NCI-H522
# Method in brief: as §1
# NCI-H596 = system: NCI-H596
# Method in brief: as §1
# NCI-H650 = system: NCI-H650
# Method in brief: as §1
# PC-3 [JPC-3] = system: PC-3 [JPC-3]
# Method in brief: as §1
# SK-LU-1 = system: SK-LU-1
# Method in brief: as §1
smiles,measurement,setting,value
CCNC(=O)c1noc(-c2cc(C(C)C)c(O)cc2O)c1-c1ccc(CN2CCOCC2)cc1 [Luminespib] + CC(=O)Nc1cccc(-n2c(=O)n(C3CC3)c(=O)c3c(Nc4ccc(I)cc4F)n(C)c(=O)c(C)c32)c1 [Trametinib] (partner 0.02 µM),relative viability,201T; first compound 0.002 µM,0.667
same,relative viability,201T; first compound 0.006325 µM,0.706
same,relative viability,201T; first compound 0.02 µM,0.675
same,relative viability,201T; first compound 0.06325 µM,0.67
same,relative viability,201T; first compound 0.2 µM,0.674
same,relative viability,COR-L23; first compound 0.002 µM,0.569
same,relative viability,COR-L23; first compound 0.006325 µM,0.462
same,relative viability,COR-L23; first compound 0.02 µM,0.223
same,relative viability,COR-L23; first compound 0.06325 µM,0.0665
same,relative viability,COR-L23; first compound 0.2 µM,0.0604
same,relative viability,H3255; first compound 0.002 µM,0.549
same,relative viability,H3255; first compound 0.02 µM,0.405
same,relative viability,H3255; first compound 0.06325 µM,0.386
same,relative viability,H3255; first compound 0.2 µM,0.278
same,relative viability,HARA; first compound 0.002 µM,0.667
same,relative viability,HARA; first compound 0.006325 µM,0.614
same,relative viability,HARA; first compound 0.02 µM,0.471
same,relative viability,HARA; first compound 0.06325 µM,0.121
same,relative viability,HARA; first compound 0.2 µM,0.141
same,relative viability,HCC-366; first compound 0.002 µM,0.354
same,relative viability,HCC-366; first compound 0.006325 µM,0.363
same,relative viability,HCC-366; first compound 0.02 µM,0.349
same,relative viability,HCC-366; first compound 0.06325 µM,0.026
same,relative viability,HCC-366; first compound 0.2 µM,0.0301
same,relative viability,HCC-78; first compound 0.002 µM,0.74
same,relative viability,HCC-78; first compound 0.006325 µM,0.61
same,relative viability,HCC-78; first compound 0.02 µM,0.572
same,relative viability,HCC-78; first compound 0.06325 µM,0.874
same,relative viability,HCC-78; first compound 0.2 µM,0.512
same,relative viability,LU99A; first compound 0.002 µM,0.534
same,relative viability,LU99A; first compound 0.006325 µM,0.493
same,relative viability,LU99A; first compound 0.02 µM,0.378
same,relative viability,LU99A; first compound 0.06325 µM,0.482
same,relative viability,LU99A; first compound 0.2 µM,0.507
same,relative viability,NCI-H1650; first compound 0.002 µM,0.571
same,relative viability,NCI-H1650; first compound 0.006325 µM,0.565
same,relative viability,NCI-H1650; first compound 0.02 µM,0.178
same,relative viability,NCI-H1650; first compound 0.06325 µM,0.1
same,relative viability,NCI-H1650; first compound 0.2 µM,0.0947
same,relative viability,NCI-H1651; first compound 0.002 µM,0.787
same,relative viability,NCI-H1651; first compound 0.006325 µM,0.798
same,relative viability,NCI-H1651; first compound 0.02 µM,0.634
same,relative viability,NCI-H1651; first compound 0.06325 µM,0.754
same,relative viability,NCI-H1651; first compound 0.2 µM,0.609
same,relative viability,NCI-H1755; first compound 0.002 µM,0.783
same,relative viability,NCI-H1755; first compound 0.006325 µM,0.733
same,relative viability,NCI-H1755; first compound 0.02 µM,0.691
same,relative viability,NCI-H1755; first compound 0.06325 µM,0.765
same,relative viability,NCI-H1755; first compound 0.2 µM,0.701
same,relative viability,NCI-H1793; first compound 0.002 µM,0.428
same,relative viability,NCI-H1793; first compound 0.006325 µM,0.333
same,relative viability,NCI-H1793; first compound 0.02 µM,0.357
same,relative viability,NCI-H1793; first compound 0.06325 µM,0.187
same,relative viability,NCI-H1793; first compound 0.2 µM,0.186
same,relative viability,NCI-H2085; first compound 0.002 µM,0.535
same,relative viability,NCI-H2085; first compound 0.006325 µM,0.507
same,relative viability,NCI-H2085; first compound 0.02 µM,0.33
same,relative viability,NCI-H2085; first compound 0.06325 µM,0.202
same,relative viability,NCI-H2085; first compound 0.2 µM,0.241
same,relative viability,NCI-H2087; first compound 0.002 µM,0.197
same,relative viability,NCI-H2087; first compound 0.006325 µM,0.218
same,relative viability,NCI-H2087; first compound 0.02 µM,0.205
same,relative viability,NCI-H2087; first compound 0.06325 µM,0.146
same,relative viability,NCI-H2087; first compound 0.2 µM,0.11
same,relative viability,NCI-H23; first compound 0.002 µM,0.397
same,relative viability,NCI-H23; first compound 0.006325 µM,0.424
same,relative viability,NCI-H23; first compound 0.02 µM,0.333
same,relative viability,NCI-H23; first compound 0.06325 µM,0.13
same,relative viability,NCI-H23; first compound 0.2 µM,0.156
same,relative viability,NCI-H3122; first compound 0.002 µM,0.179
same,relative viability,NCI-H3122; first compound 0.006325 µM,0.27
same,relative viability,NCI-H3122; first compound 0.02 µM,0.141
same,relative viability,NCI-H3122; first compound 0.06325 µM,0.242
same,relative viability,NCI-H3122; first compound 0.2 µM,0.186
same,relative viability,NCI-H322M; first compound 0.002 µM,0.494
same,relative viability,NCI-H322M; first compound 0.006325 µM,0.535
same,relative viability,NCI-H322M; first compound 0.02 µM,0.453
same,relative viability,NCI-H322M; first compound 0.06325 µM,0.456
same,relative viability,NCI-H322M; first compound 0.2 µM,0.407
same,relative viability,NCI-H358; first compound 0.002 µM,0.142
same,relative viability,NCI-H358; first compound 0.006325 µM,0.133
same,relative viability,NCI-H358; first compound 0.02 µM,0.0934
same,relative viability,NCI-H358; first compound 0.06325 µM,0.0702
same,relative viability,NCI-H358; first compound 0.2 µM,0.0715
same,relative viability,NCI-H460; first compound 0.002 µM,0.205
same,relative viability,NCI-H460; first compound 0.006325 µM,0.124
same,relative viability,NCI-H460; first compound 0.02 µM,0.0112
same,relative viability,NCI-H460; first compound 0.06325 µM,0.0128
same,relative viability,NCI-H460; first compound 0.2 µM,0.0152
same,relative viability,NCI-H522; first compound 0.002 µM,0.721
same,relative viability,NCI-H522; first compound 0.006325 µM,0.716
same,relative viability,NCI-H522; first compound 0.02 µM,0.693
same,relative viability,NCI-H522; first compound 0.06325 µM,0.635
same,relative viability,NCI-H522; first compound 0.2 µM,0.501
same,relative viability,NCI-H596; first compound 0.002 µM,0.873
same,relative viability,NCI-H596; first compound 0.006325 µM,0.835
same,relative viability,NCI-H596; first compound 0.02 µM,0.743
same,relative viability,NCI-H596; first compound 0.06325 µM,0.806
same,relative viability,NCI-H596; first compound 0.2 µM,0.646
same,relative viability,NCI-H650; first compound 0.002 µM,1.06
same,relative viability,NCI-H650; first compound 0.006325 µM,0.881
same,relative viability,NCI-H650; first compound 0.02 µM,0.629
same,relative viability,NCI-H650; first compound 0.06325 µM,0.262
same,relative viability,NCI-H650; first compound 0.2 µM,0.086
same,relative viability,PC-3 [JPC-3]; first compound 0.002 µM,0.75
same,relative viability,PC-3 [JPC-3]; first compound 0.006325 µM,0.682
same,relative viability,PC-3 [JPC-3]; first compound 0.02 µM,0.517
same,relative viability,PC-3 [JPC-3]; first compound 0.06325 µM,0.505
same,relative viability,PC-3 [JPC-3]; first compound 0.2 µM,0.457
same,relative viability,SK-LU-1; first compound 0.002 µM,0.478
same,relative viability,SK-LU-1; first compound 0.006325 µM,0.371
same,relative viability,SK-LU-1; first compound 0.02 µM,0.314
same,relative viability,SK-LU-1; first compound 0.06325 µM,0.178
same,relative viability,SK-LU-1; first compound 0.2 µM,0.185
